# According to US20240201204A1, “Biomarker and Druggable Target of Neurodegeneration” (University Hospitals Cleveland Medical Center, priority 2020, published 2024):
# Experiments:
# Type in all cases: in vivo, mouse
# p300/CBP = p300/CBP activity after TBI (acetylation of p300/CBP, H2AK5, H3K18; western blot); settings: vs. TBI+Vehicle
# Procedure: (§1) Drug preparation and administration: CGP3466B (Sigma-Aldrich, SML1941) was dissolved in DMSO and then diluted in sterile saline. The final working stock was 0.0014 mg/ml for administering the 0.014 mg/kg dose. Intraperitoneal administration of CGP3466B was initiated 15 min or 24 h after injury, and tissues were harvested 6 h (for SNO-GAPDH, SNO-SIRT1 measurement) or 2 weeks (for ac-tau measurement) later, respectively. Salsalate (AdipoGen, AG-CR1-3574) was dissolved in DMSO and then diluted in sterile PBS. The final working stocks were as follows: 2.5 mg/ml (25 mg/kg dose), 1 mg/ml (10 mg/kg dose), 0.5 mg/ml (5 mg/kg dose). Daily intraperitoneal administration of salsalate was initiated 24 hr after injury and continued throughout behavioral testing. P7C3-A20 and FK866 (Sigma-Aldrich, F8557) were first dissolved in 1 vol of DMSO, followed by addition of 4 vol of Kolliphor and vigorously vortexing. The solution was then diluted with 30 vol of filtered 5% dextrose (pH 7.0). EX527 (Selleckchem, S1541) was dissolved in 1% DMSO+30% polyethylene glycol+1% Tween 80. Daily intraperitoneal administration of P7C3-A20 was initiated 24 hr after poly-traumatic brain injury. EX527 (10 mg/kg) was administer once a day and FK866 was treated twice per day, with the first injection given at the same time as P7C3-A20 (20 mg/kg) and the second injection given 6 h later (LoCoco et al., 2017 eLife). Diflunisal was first dissolved in 1 vol of DMSO, followed by addition of 2 vol of Kolliphor and vigorously vortexing. The solution was then diluted with 7 vol of saline to the appropriate concentration for administration at 25, 50, or 100 mg/kg.
# (§2) The pressure in the side not containing the mouse was increased to cause membrane rupture at 20 pounds per square inch (PSI), which generates an about 1-2 ms jet airflow of 137.9+/−13.79 kPa that passes through the animal's head. The head remains untethered in a padded holder, while the body is fully shielded by a metal tube. The jet of air produced upon membrane rupture provides a concussive injury, which is followed by acceleration/deceleration of the head and then exposure to the ensuing blast wave within an enclosed space.
# Western blotting: Western blotting was performed as described previously (Min et al., 2010), with the 9AB antibody against acetylated-tau generated in the Gan laboratory. […] Lysates were centrifuged at 170,000 g at 4° C. for 15 min and at 18,000 g at 4° C. for 10 min, after which protein concentrations of supernatants were measured by bicinchoninic acid assay (Thermo Scientific, A53225). […]
# tau = assay: Tau mislocalization after TBI (tau and NeuN immunohistochemistry); settings: vs. TBI+Vehicle
# Procedure: as §1, §2
# Immunohistochemistry: Mice were transcardially perfused with cold 1× phosphate-buffered saline (PBS) followed by 4% paraformaldehyde in PBS at pH 7.4 under anesthesia. Brains were carefully removed and post-fixed in 4% paraformaldehyde overnight at 4° C. Brains were immersed in 30% sucrose in PBS for 72 h at 4° C. and then rapidly frozen in 2-methylbutane pre-cooled to −20° C. with dry ice. Brains were cut coronally (40 μm) and sections were stored in cryoprotective solution (150 mM Ethylene glycol, 100 mM glycerol, 250 mM PBS) at −20° C. […]
# axon initial segment = assay: Axon initial segment (AIS) degradation after TBI (AnkG, βIV-spectrin staining); settings: vs. TBI+Vehicle
# Procedure: as §1, §2
# Immunohistochemistry: Mice were transcardially perfused with cold 1× phosphate-buffered saline (PBS) followed by 4% paraformaldehyde in PBS at pH 7.4 under anesthesia. Brains were carefully removed and post-fixed in 4% paraformaldehyde overnight at 4° C. Brains were immersed in 30% sucrose in PBS for 72 h at 4° C. and then rapidly frozen in 2-methylbutane pre-cooled to −20° C. with dry ice. Brains were cut coronally (40 μm) and sections were stored in cryoprotective solution (150 mM Ethylene glycol, 100 mM glycerol, 250 mM PBS) at −20° C. For tau and NeuN staining, sections were washed three times with PBS for 5 min and then treated with 0.2% Triton X-100 in PBS for 15 min. Sections were washed with PBS and then incubated with 100 mM glycine for 15 min. After blocking sections using blocking buffer (1% bovine serum albumin, 10% normal goat serum, 0.3 M glycine) for 30 min, primary antibodies (Tau, Invitrogen, #13-6400, 1:100, NeuN, EMD Millipore Cor., #MABN-140, 1:500) were incubated overnight at 4° C. Sections were washed three times with PBS (5 min each) and then incubated with Alexa Fluor 488 goat anti-mouse (Invitrogen, A11001, 1:200) or Alexa Fluor 568 goat anti-rabbit (Life technologies, A11011, 1:200) at room temperature for 2 h. […]
# degenerating axons = assay: Axon degeneration after TBI (silver staining); settings: vs. TBI+Vehicle
# Procedure: as §1, with “Diflunisal was first dissolved in 1 vol of DMSO, followed by addition of 2 vol of Kolliphor and vigorously vortexing. The solution was then diluted with 7 vol of saline to the appropriate concentration for administration at 25, 50, or 100 mg/kg.” left out
# C57BL/6J mice = assay: Barnes maze task of learning and memory after TBI
# Procedure: as §1, §2
# Barnes maze: The Barnes maze apparatus consisted of a gray circular platform (91 cm in diameter and 90 cm in height), with 20 equally spaced holes 5 cm in diameter along the perimeter (Stoelting Co.). One of these holes contained a recessed escape chamber located under the platform. Four different and equally-spaced visual cues with different shapes and colors were hung on a black circular curtain surrounding the maze. […] Total and primary latency were measured during training days, and latency to first nose pokes in escape hole and time spent in target quadrant were measured for memory test on the probe trial day. […]
# [1] = low-dose salsalate daily IP from 24 h after TBI
SMILES,ac-H2AK5 levels in cerebral cortex and hippocampus (p300/CBP; low-dose salsalate after TBI),ac-H3K18 levels in cerebral cortex and hippocampus (p300/CBP; low-dose salsalate after TBI),acetylation of p300/CBP (p300/CBP; low-dose salsalate after TBI),post-TBI tau mislocalization (tau; [1]),post-TBI AIS degradation (axon initial segment; [1]),post-TBI axonal degeneration (degenerating axons; [1]),"post-TBI cognitive impairment (learning and memory in the Barnes maze) (C57BL/6J mice; low-dose salsalate daily IP from 24 h after TBI, vs. TBI+Vehicle)",average speed in behavioral testing (C57BL/6J mice; salsalate daily IP from 24 h after TBI),"learning, primary latency during training period of the Barnes maze (C57BL/6J mice; salsalate daily IP from 24 h after TBI, vs. TBI+Vehicle)","ac-p300/CBP in cerebral cortex (p300/CBP; CGP3466B 0.014 mg/kg, after TBI)","post-TBI tau mislocalization (tau; CGP3466B 0.014 mg/kg IP daily, initiated 24 hours after TBI)","post-TBI AIS degradation, cerebral cortex (axon initial segment; CGP3466B 0.014 mg/kg IP daily)","post-TBI AIS degradation, hippocampus (axon initial segment; CGP3466B 0.014 mg/kg IP daily)",post-TBI axon degeneration (silver staining) (degenerating axons; CGP3466B 0.014 mg/kg IP daily),"post-TBI cognition, learning and memory phases of Barnes maze (C57BL/6J mice; CGP3466B 0.014 mg/kg IP daily, initiated 24 hours after injury, vs. TBI+Vehicle)"
O=C(Oc1ccccc1C(=O)O)c1ccccc1O [salsalate],significantly reduced levels of ac-H2AK5 and ac-H3K18,significantly reduced levels of ac-H2AK5 and ac-H3K18,acetylation of p300/CBP was also significantly reduced,protects mice from post-TBI tau mislocalization,protects mice from post-TBI AIS degradation,protects mice from post-TBI axonal degeneration,protects mice from post-TBI impairments,Average speed was not affected,improved learning as measured by primary latency,,,,,,
C#CCN(C)CC1=Cc2ccccc2Oc2ccccc21.O=C(O)/C=C\C(=O)O [CGP3466B],,,,,,,,,,reduces ac-p300/CBP in cerebral cortex after TBI,protects mice from post-TBI tau mislocalization,protects mice from post-TBI AIS degradation in the cerebral cortex,protects mice from post-TBI AIS degradation in the hippocampus,protects mice from post-TBI axon degeneration,protects mice from post-TBI impaired cognition in both learning and memory phases
